Assay results taken from patent US20260022142A1, “MACROCYCLIC IMMUNOMODULATORS” (Bristol-Myers Squibb Company, priority 2022, published 2026).
Values belong to the molecule of their own block, whether it stands above or below them. Bridge positions count the residues as written; N and C are the ends. Square brackets hold non-standard residues; d marks the D form. Peptide text beside a SMILES is read from it. * marks the point of attachment. Phe(4-CH2CH2COOH) = N[C@@H](Cc1ccc(CCC(=O)O)cc1)C(=O)O; Phe(4-COOH) = N[C@@H](Cc1ccc(C(=O)O)cc1)C(=O)O; Bip = N[C@@H](Cc1ccc(-c2ccccc2)cc1)C(=O)O; Phe(3-Me) = Cc1cccc(C[C@H](N)C(=O)O)c1; Cha = N[C@@H](CC1CCCCC1)C(=O)O; Cit = NC(=O)NCCC[C@H](N)C(=O)O; Carboxymethyl = O=C(O)C*; Orn = NCCC[C@H](N)C(=O)O; Aun = NCCCCCCCCCCC(=O)O; Dab = NCC[C@H](N)C(=O)O; Dap = NC[C@H](N)C(=O)O; AEEA = NCCOCCOCC(=O)O; Ac3c = NC1(C(=O)O)CC1

Molecular target: T1, PD-1/PD-L1 interaction (PE-labeled human PD-L1-Ig binding to Jurkat cell line over-expressing human PD-1) (Homo sapiens, UniProt Q15116)
T1 construct: expressed in transfected cells; host or cells: Jurkat
Experiment: Jurkat-PD-1 Cell Binding High-Content Screening Assay (CBA)
Type: cell-based
Settings: Jurkat cell line over-expressing human PD-1; PE-labeled PD-L1-Ig 20 nM final; read-out: Jurkat hPD1-PDL1 IC50
In short: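 Human PD-L1-Ig carrying a covalent PE label on its Ig tag serves as the probe, applied at 20 nM final to compound-treated (2 h, 37° C) Jurkat-hPD-1 cells in medium with 10% fetal calf serum. After one hour, fixation and nuclear staining precede high-content image analysis.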

T1 sequence (Q15116 25-288): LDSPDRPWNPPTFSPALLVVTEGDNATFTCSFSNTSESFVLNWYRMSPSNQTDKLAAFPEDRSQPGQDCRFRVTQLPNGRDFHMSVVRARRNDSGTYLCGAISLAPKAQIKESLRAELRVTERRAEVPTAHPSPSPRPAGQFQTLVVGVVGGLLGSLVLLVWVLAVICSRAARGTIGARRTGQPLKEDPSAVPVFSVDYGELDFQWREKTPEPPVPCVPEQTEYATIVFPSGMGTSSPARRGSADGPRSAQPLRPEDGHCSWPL

SMILES: Cc1cccc(C[C@@H]2NC(=O)[C@H](CC(=O)O)NC(=O)[C@H](Cc3ccc(OCC(=O)O)cc3)NC(=O)[C@H](CN)NC(=O)CSC[C@@H](C(=O)NC3(C(=O)N[C@@H](CCCN)C(=O)N[C@H](CO)C(=O)NCCCCCCCCCCC(=O)O)CC3)NC(=O)[C@H]([C@@H](C)O)NC(=O)[C@H](C(C)C)NC(=O)[C@H](CC3CCCCC3)NC(=O)[C@H](CCN)NC(=O)[C@@H](CC(C)C)NC(=O)[C@H](CCCN)NC(=O)[C@H](CCCNC(N)=O)NC(=O)[C@H](Cc3ccc(-c4ccccc4)cc3)NC(=O)[C@H](C(C)C)NC2=O)c1 [Compound 2015] ({CH2CO}-[Dap]Y(Carboxymethyl)D[Phe(3-Me)]V[Bip][Cit][Orn][dL][Dab][Cha]VTC[Ac3c][Orn][dS][Aun]-OH; thioether N-14)
IC50: 19.8 nM

SMILES: Cc1cccc(C[C@@H]2NC(=O)[C@H](CC(=O)O)NC(=O)[C@H](Cc3ccc(OCC(=O)O)cc3)NC(=O)[C@H](CN)NC(=O)CSC[C@@H](C(=O)N[C@@H](C)C(=O)N[C@@H](CCCN)C(=O)N[C@H](CO)C(=O)NCCCCCCCCCCC(=O)O)NC(=O)[C@H]([C@@H](C)O)NC(=O)[C@H](C(C)C)NC(=O)[C@H](CC3CCCCC3)NC(=O)[C@H](CCN)NC(=O)[C@@H](CC(C)C)NC(=O)[C@H](CCCN)NC(=O)[C@H](CCCNC(=N)N)NC(=O)[C@H](Cc3ccc(-c4ccccc4)cc3)NC(=O)[C@H](C(C)C)NC2=O)c1 [Compound 2016] ({CH2CO}-[Dap]Y(Carboxymethyl)D[Phe(3-Me)]V[Bip]R[Orn][dL][Dab][Cha]VTCA[Orn][dS][Aun]-OH; thioether N-14)
IC50: 17.6 nM

SMILES: CC(C)C[C@@H]1NC(=O)[C@H](Cc2c[nH]c3ccccc23)NC(=O)[C@H](CC(=O)O)NC(=O)[C@H](Cc2ccc(C(=O)O)cc2)NC(=O)[C@H](Cc2ccc(CCC(=O)O)cc2)NC(=O)CSC[C@@H](C(=O)N[C@@H](CCN)C(=O)NCCCCCCCCCCC(=O)O)NC(=O)[C@@H](CO)NC(=O)[C@H](C(C)C)NC(=O)[C@H](CC2CCCCC2)NC(=O)[C@H](CCN)NC(=O)[C@@H](CC(C)C)NC(=O)[C@H](CCCN)NC(=O)[C@H](C(C)C)NC(=O)[C@H](Cc2ccc(-c3ccccc3)cc2)NC1=O [Compound 2019] ({CH2CO}-[Phe(4-CH2CH2COOH)][Phe(4-COOH)]DWL[Bip]V[Orn][dL][Dab][Cha]V[dS]C[Dab][Aun]-OH; thioether N-14)
IC50: 49.9 nM

Now from value to molecule:

IC50: 19.3 nM
SMILES: Cc1cccc(C[C@@H]2NC(=O)[C@H](CC(=O)O)NC(=O)[C@H](Cc3ccc(OCC(=O)O)cc3)NC(=O)[C@H](CN)NC(=O)CSC[C@@H](C(=O)N[C@@H](CCN)C(=O)NCCOCCOCC(=O)NCCCCCCCCCCC(=O)O)NC(=O)[C@@H](CO)NC(=O)[C@H](C(C)C)NC(=O)[C@H](CC3CCCCC3)NC(=O)[C@H](CCN)NC(=O)[C@@H](CC(C)C)NC(=O)[C@H](CCCN)NC(=O)[C@H](C(C)C)NC(=O)[C@H](Cc3ccc(-c4ccccc4)cc3)NC(=O)[C@H](Cc3ccc(O)cc3)NC2=O)c1 [Compound 2017] ({CH2CO}-[Dap]Y(Carboxymethyl)D[Phe(3-Me)]Y[Bip]V[Orn][dL][Dab][Cha]V[dS]C[Dab][AEEA][Aun]-OH; thioether N-14)

IC50: 40.4 nM
SMILES: CC(C)C[C@@H]1NC(=O)[C@H](Cc2c[nH]c3ccccc23)NC(=O)[C@H](CC(=O)O)NC(=O)[C@H](Cc2ccc(OCC(=O)O)cc2)NC(=O)[C@H](CN)NC(=O)CSC[C@@H](C(=O)N[C@@H](CCN)C(=O)NCCCCCCCCCCC(=O)O)NC(=O)[C@@H](CO)NC(=O)[C@H](C(C)C)NC(=O)[C@H](CC2CCCCC2)NC(=O)[C@H](CCN)NC(=O)[C@@H](CC(C)C)NC(=O)[C@H](CCCN)NC(=O)[C@H](C(C)C)NC(=O)[C@H](Cc2ccc(-c3ccccc3)cc2)NC1=O [Compound 2018] ({CH2CO}-[Dap]Y(Carboxymethyl)DWL[Bip]V[Orn][dL][Dab][Cha]V[dS]C[Dab][Aun]-OH; thioether N-14)
